Relative viability data for 5 cell lines are collected here from the supplement of paper PMC10307832.

Common to all, as to assay: relative viability (nuclei count vs DMSO), 5 days (fraction); higher = more cells survive
Compound in the assay “DM3189 + Luminespib”: C1CN(CCN1)C2=CC=C(C=C2)C3=CN4C(=C(C=N4)C5=CC=NC6=CC=CC=C56)N=C3 [DM3189] + CCNC(=O)c1noc(-c2cc(C(C)C)c(O)cc2O)c1-c1ccc(CN2CCOCC2)cc1 [Luminespib] (partner 0.01 µM)
Summed up:
(§1)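 Lung cancer cell lines were seeded in 1536-well plates and dosed by pin tool the next day, with either a single drug or a fixed anchor-drug dose combined with five library-drug doses (not always all listed) spaced in √10 steps. Five days later, one step fixed the cells and stained their nuclei (final 0.05% Triton X-100, 1% formaldehyde, 1 ug/ml Hoechst), and nuclei were counted on 4× images. Relative viability is the nuclei count in treated wells divided by the count in vehicle wells, and each value is the median of duplicate plates.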

Compound in the assay “DM3189 + Linsitinib”: C1CN(CCN1)C2=CC=C(C=C2)C3=CN4C(=C(C=N4)C5=CC=NC6=CC=CC=C56)N=C3 [DM3189] + C[C@]1(O)C[C@@H](c2nc(-c3ccc4ccc(-c5ccccc5)nc4c3)c3c(N)nccn32)C1 [Linsitinib] (partner 1 µM)
In short, it runs like this: as §1

Compound in the assay “DM3189 + Palbociclib”: C1CN(CCN1)C2=CC=C(C=C2)C3=CN4C(=C(C=N4)C5=CC=NC6=CC=CC=C56)N=C3 [DM3189] + CC(=O)c1c(C)c2cnc(Nc3ccc(N4CCNCC4)cn3)nc2n(C2CCCC2)c1=O [Palbociclib] (partner 0.5 µM)
In short, it runs like this: as §1

Compound in the assay “DM3189 + Olaparib”: C1CN(CCN1)C2=CC=C(C=C2)C3=CN4C(=C(C=N4)C5=CC=NC6=CC=CC=C56)N=C3 [DM3189] + O=C(c1cc(Cc2n[nH]c(=O)c3ccccc23)ccc1F)N1CCN(C(=O)C2CC2)CC1 [Olaparib] (partner 8 µM)
In short, it runs like this:
as §1

Compound in the assay “DM3189 + AZD7762”: C1CN(CCN1)C2=CC=C(C=C2)C3=CN4C(=C(C=N4)C5=CC=NC6=CC=CC=C56)N=C3 [DM3189] + NC(=O)Nc1cc(-c2cccc(F)c2)sc1C(=O)N[C@H]1CCCNC1 [AZD7762] (partner 0.2 µM)
In short, it runs like this: as §1

Consider NCI-H2405, for which the relative viability in the assay with DM3189 + Luminespib (first compound 0.08 µM) worked out at 0.704; with DM3189 + Luminespib (first compound 0.253 µM), 0.754; in the assay with DM3189 + Luminespib (first compound 0.8 µM), 0.646; with DM3189 + Luminespib (first compound 2.53 µM), 0.491; with DM3189 + Linsitinib (first compound 0.08 µM), 0.909; in the assay with DM3189 + Linsitinib (first compound 0.253 µM), 0.922. The relative viability with DM3189 + Linsitinib (first compound 0.8 µM) was found to be 0.792; in the assay with DM3189 + Linsitinib (first compound 2.53 µM), 0.878; with DM3189 + Palbociclib (first compound 0.08 µM), 0.54; with DM3189 + Palbociclib (first compound 0.253 µM), 0.55; with DM3189 + Palbociclib (first compound 0.8 µM), 0.494; in the assay with DM3189 + Palbociclib (first compound 2.53 µM), 0.453. In addition, the relative viability with DM3189 + Olaparib (first compound 0.08 µM) was 0.919; with DM3189 + Olaparib (first compound 0.253 µM) it was 0.858; in the assay with DM3189 + Olaparib (first compound 0.8 µM), 0.781; with DM3189 + Olaparib (first compound 2.53 µM), 0.793; with DM3189 + AZD7762 (first compound 0.08 µM), 0.727; with DM3189 + AZD7762 (first compound 0.253 µM), 0.665. In addition, the relative viability with DM3189 + AZD7762 (first compound 0.8 µM) came out at 0.645; with DM3189 + AZD7762 (first compound 2.53 µM), 0.704.

For NCI-H3122, the relative viability in the assay with DM3189 + Luminespib (first compound 0.08 µM) was found to be 0.0997; with DM3189 + Luminespib (first compound 0.253 µM), 0.103; with DM3189 + Luminespib (first compound 0.8 µM), 0.072; in the assay with DM3189 + Luminespib (first compound 2.53 µM) it was 0.0922; with DM3189 + Linsitinib (first compound 0.08 µM) it was 0.939; with DM3189 + Linsitinib (first compound 0.253 µM), 0.907. Also, the relative viability with DM3189 + Linsitinib (first compound 0.8 µM) worked out at 0.876; with DM3189 + Linsitinib (first compound 2.53 µM), 0.933; with DM3189 + Palbociclib (first compound 0.08 µM), 0.2; with DM3189 + Palbociclib (first compound 0.253 µM), 0.178; with DM3189 + Palbociclib (first compound 0.8 µM), 0.154; with DM3189 + Palbociclib (first compound 2.53 µM), 0.162. For the same cell line, the relative viability in the assay with DM3189 + Olaparib (first compound 0.08 µM) came out at 0.698; in the assay with DM3189 + Olaparib (first compound 0.253 µM), 0.606; with DM3189 + Olaparib (first compound 0.8 µM) it was 0.545; with DM3189 + Olaparib (first compound 2.53 µM) it was 0.73; in the assay with DM3189 + AZD7762 (first compound 0.08 µM), 0.978; in the assay with DM3189 + AZD7762 (first compound 0.253 µM), 0.964. Further, the results for the relative viability with DM3189 + AZD7762 (first compound 0.8 µM) and with DM3189 + AZD7762 (first compound 2.53 µM) were 0.912 and 0.816, respectively.

For PC-3 [JPC-3], the relative viability was found to be 0.725 with DM3189 + Luminespib (first compound 0.08 µM); 0.705 with DM3189 + Luminespib (first compound 0.253 µM); 0.694 in the assay with DM3189 + Luminespib (first compound 0.8 µM); 0.512 in the assay with DM3189 + Luminespib (first compound 2.53 µM); 0.975 with DM3189 + Linsitinib (first compound 0.08 µM); 0.91 with DM3189 + Linsitinib (first compound 0.253 µM). Also, the relative viability in the assay with DM3189 + Linsitinib (first compound 0.8 µM) was determined as 0.972; in the assay with DM3189 + Linsitinib (first compound 2.53 µM), 1.06; with DM3189 + Palbociclib (first compound 0.08 µM), 0.574; with DM3189 + Palbociclib (first compound 0.253 µM) it was 0.48; with DM3189 + Palbociclib (first compound 0.8 µM), 0.553; in the assay with DM3189 + Palbociclib (first compound 2.53 µM) it was 0.543. The relative viability was determined as 1.17 with DM3189 + Olaparib (first compound 0.08 µM); 1.11 with DM3189 + Olaparib (first compound 0.253 µM); 1.08 with DM3189 + Olaparib (first compound 0.8 µM); 1.05 in the assay with DM3189 + Olaparib (first compound 2.53 µM); 0.957 with DM3189 + AZD7762 (first compound 0.08 µM); 0.884 with DM3189 + AZD7762 (first compound 0.253 µM). For the same cell line, the relative viability with DM3189 + AZD7762 (first compound 0.8 µM) was found to be 0.814; with DM3189 + AZD7762 (first compound 2.53 µM), 0.791.

In the case of PC-14, the relative viability in the assay with DM3189 + Luminespib (first compound 0.08 µM) was 0.161; in the assay with DM3189 + Luminespib (first compound 0.253 µM), 0.154; with DM3189 + Luminespib (first compound 0.8 µM), 0.152; with DM3189 + Luminespib (first compound 2.53 µM), 0.154; with DM3189 + Linsitinib (first compound 0.08 µM), 1.03; with DM3189 + Linsitinib (first compound 0.253 µM) it was 0.953. The relative viability with DM3189 + Linsitinib (first compound 0.8 µM) is 0.903; with DM3189 + Linsitinib (first compound 2.53 µM), 0.879; with DM3189 + Palbociclib (first compound 0.08 µM), 0.591; with DM3189 + Palbociclib (first compound 0.253 µM), 0.458; in the assay with DM3189 + Palbociclib (first compound 0.8 µM) it was 0.465; in the assay with DM3189 + Palbociclib (first compound 2.53 µM), 0.449. Further, the relative viability in the assay with DM3189 + Olaparib (first compound 0.08 µM) was 0.277; with DM3189 + Olaparib (first compound 0.253 µM), 0.238; in the assay with DM3189 + Olaparib (first compound 0.8 µM), 0.264; with DM3189 + Olaparib (first compound 2.53 µM) it was 0.226; with DM3189 + AZD7762 (first compound 0.08 µM), 0.569; with DM3189 + AZD7762 (first compound 0.253 µM), 0.249. For the same cell line, the results for the relative viability in the assay with DM3189 + AZD7762 (first compound 0.8 µM) and with DM3189 + AZD7762 (first compound 2.53 µM) were 0.263 and 0.26, respectively.

Consider RERF-LC-KJ, for which the relative viability is 1.37 in the assay with DM3189 + Luminespib (first compound 0.08 µM); 1.3 with DM3189 + Luminespib (first compound 0.253 µM); 1.46 in the assay with DM3189 + Luminespib (first compound 0.8 µM); 1.19 with DM3189 + Luminespib (first compound 2.53 µM); 0.932 with DM3189 + Linsitinib (first compound 0.08 µM); 0.879 in the assay with DM3189 + Linsitinib (first compound 0.253 µM). The relative viability with DM3189 + Linsitinib (first compound 0.8 µM) turned out to be 0.861; with DM3189 + Linsitinib (first compound 2.53 µM), 0.978; in the assay with DM3189 + Palbociclib (first compound 0.08 µM), 1.31; with DM3189 + Palbociclib (first compound 0.253 µM) it was 1.27; with DM3189 + Palbociclib (first compound 0.8 µM), 0.989; in the assay with DM3189 + Palbociclib (first compound 2.53 µM), 1.03. In addition, the relative viability in the assay with DM3189 + Olaparib (first compound 0.08 µM) came out at 0.942; with DM3189 + Olaparib (first compound 0.253 µM), 0.889; with DM3189 + Olaparib (first compound 0.8 µM) it was 0.823; with DM3189 + Olaparib (first compound 2.53 µM) it was 0.833; in the assay with DM3189 + AZD7762 (first compound 0.08 µM) it was 1.51; with DM3189 + AZD7762 (first compound 0.253 µM) it was 1.11. Further, the relative viability with DM3189 + AZD7762 (first compound 0.8 µM) worked out at 1; with DM3189 + AZD7762 (first compound 2.53 µM) it was 0.964.
